Patent US20060194837A1, “Tetrahydroisoquinoline compounds” (priority 2004, published 2006)
Where two headings read alike, the source gives them in different places.

Columns and labels:
human SERT = target: T1, human SERT (Homo sapiens, UniProt P31645); assay: Human SERT binding (3H-citalopram displacement); conditions: HEK293 membranes expressing human SERT, rt 1 h
T1 construct: expressed in transfected cells; host or cells: HEK293 membranes
Protocol: Homogenized HEK293 (Human Embryonic Kidney) membranes expressing the human SERT were incubated with ^3H-citalopram (SERT) at rt for 1 h in 50 mM Tris, 120 mM NaCl, 5 mM KCl (pH 7.4). […] The membranes were washed and the radioactivity was counted as above.

human H3 receptor [1] = target: T2, human H3 receptor (Homo sapiens, UniProt Q9Y5N1); assay: Cyclic AMP accumulation (β-galactosidase reporter, Schild analysis); format: cell-based; conditions: histamine agonist, forskolin 5 μM, Schild regression of pEC50 values
T2 construct: expressed in transfected cells
Protocol: Sublines of SK-N-MC cells were created that expressed a reporter construct and the human H3 receptor. The reporter gene (β-galactosidase) is under the control of multiple cyclic AMP responsive elements. In 96-well plates, histamine was added directly to the cell media followed 5 min later by an addition of forskolin (5 μM final concentration). When appropriate, antagonists were added 10 min prior to agonist addition. After a 6-h incubation at 37° C., the media was aspirated and the cells washed with 200 μL of phosphate-buffered saline followed by a second aspiration. Cells were lysed with 25 μL 0.1× assay buffer (10 mM Na-phosphate, pH 8, 0.2 mM MgSO4, 0.01 mM MnCl2) and incubated at rt for 10 min. […] Color was developed using 25 μL of 1 mg/mL substrate solution (chlorophenolred β-D galactopyranoside; Roche Molecular Biochemicals, Indianapolis, In.).

Rat SERT = target: T3, Rat SERT (Rattus norvegicus, UniProt P31652); assay: Rat brain SERT binding ([3H]-citalopram displacement); conditions: rat brain membranes without cerebellum, 0.6 nM [3H]-citalopram, 60 min at 25° C.; read-out: Rat SERT Ki
T3 construct: A rat brain without cerebellum (Zivic Laboratories, Inc.—Pittsburgh, Pa.) was homogenized; tissue Zivic Laboratories, Inc; host or cells: rat brain without cerebellum, membranes
Protocol: The supernatant was removed and re-centrifuged at 15,000 rpm for 30 min. […] Membranes were incubated with 0.6 nM [^3H]-Citalopram plus/minus test compounds for 60 min at 25° C. and harvested by rapid filtration over GF/C glass fiber filters (pretreated with 0.3% polyethylenimine) followed by four washes with ice-cold buffer.

human H3 receptor [2] = target: T2, human H3 receptor; assay: H3 receptor binding (N-[3H]-α-methylhistamine displacement); conditions: membranes of SK-N-MC cells expressing cloned human H3 receptor, 0.8 nM N-[3H]-α-methylhistamine, 60 min at 25° C.
[3] = SK-N-MC cells expressing human H3 receptor and CRE-β-galactosidase reporter, read-out: pA2 (converted)

T3 sequence (P31652 whole entry): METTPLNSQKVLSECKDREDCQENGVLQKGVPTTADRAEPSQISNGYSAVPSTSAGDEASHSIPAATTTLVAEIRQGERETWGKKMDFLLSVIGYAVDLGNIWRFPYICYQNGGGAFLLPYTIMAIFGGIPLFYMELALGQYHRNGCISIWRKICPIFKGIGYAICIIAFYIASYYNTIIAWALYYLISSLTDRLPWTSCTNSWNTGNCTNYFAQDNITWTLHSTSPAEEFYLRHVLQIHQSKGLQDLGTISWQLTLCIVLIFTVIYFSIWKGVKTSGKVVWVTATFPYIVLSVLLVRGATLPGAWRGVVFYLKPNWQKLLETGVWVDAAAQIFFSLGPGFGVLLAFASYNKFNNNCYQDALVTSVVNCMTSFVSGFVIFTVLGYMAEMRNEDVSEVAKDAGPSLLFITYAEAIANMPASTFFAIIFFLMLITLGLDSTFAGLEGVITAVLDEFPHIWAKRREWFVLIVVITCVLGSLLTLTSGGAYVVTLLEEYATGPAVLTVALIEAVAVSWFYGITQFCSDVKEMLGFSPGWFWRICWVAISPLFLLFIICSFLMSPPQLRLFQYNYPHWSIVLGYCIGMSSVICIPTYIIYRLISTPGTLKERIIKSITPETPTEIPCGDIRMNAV
T2 sequence (Q9Y5N1 whole entry): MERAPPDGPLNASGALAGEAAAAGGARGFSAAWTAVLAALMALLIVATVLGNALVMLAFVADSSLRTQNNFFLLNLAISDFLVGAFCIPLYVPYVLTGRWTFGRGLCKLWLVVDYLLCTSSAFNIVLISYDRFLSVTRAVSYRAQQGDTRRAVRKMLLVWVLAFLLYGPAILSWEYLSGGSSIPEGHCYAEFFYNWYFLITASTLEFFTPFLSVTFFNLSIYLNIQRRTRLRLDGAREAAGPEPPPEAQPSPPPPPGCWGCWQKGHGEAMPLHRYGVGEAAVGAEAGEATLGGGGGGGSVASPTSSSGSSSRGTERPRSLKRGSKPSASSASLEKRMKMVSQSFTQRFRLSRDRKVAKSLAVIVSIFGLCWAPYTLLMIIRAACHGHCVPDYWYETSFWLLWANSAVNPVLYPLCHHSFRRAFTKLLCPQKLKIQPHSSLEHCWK
T1 sequence (P31645 whole entry): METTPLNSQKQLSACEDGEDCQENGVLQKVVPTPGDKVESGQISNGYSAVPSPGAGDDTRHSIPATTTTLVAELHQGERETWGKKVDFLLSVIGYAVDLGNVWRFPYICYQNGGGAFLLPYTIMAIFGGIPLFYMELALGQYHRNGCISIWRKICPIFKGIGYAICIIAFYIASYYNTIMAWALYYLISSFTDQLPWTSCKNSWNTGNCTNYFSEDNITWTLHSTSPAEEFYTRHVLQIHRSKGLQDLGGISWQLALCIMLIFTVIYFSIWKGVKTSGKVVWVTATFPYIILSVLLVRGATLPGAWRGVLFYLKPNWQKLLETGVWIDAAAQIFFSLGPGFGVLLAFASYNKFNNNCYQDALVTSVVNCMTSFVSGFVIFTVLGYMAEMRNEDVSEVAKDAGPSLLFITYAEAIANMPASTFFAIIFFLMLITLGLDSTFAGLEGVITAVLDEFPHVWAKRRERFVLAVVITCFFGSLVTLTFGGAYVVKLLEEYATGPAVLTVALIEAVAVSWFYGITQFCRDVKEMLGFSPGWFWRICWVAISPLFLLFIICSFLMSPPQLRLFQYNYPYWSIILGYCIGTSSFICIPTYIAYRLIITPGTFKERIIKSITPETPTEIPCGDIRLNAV

Row | SMILES | Ki (human SERT) [nM] | Kb (human H3 receptor [1]; [3]) [nM] | Ki (Rat SERT) [nM] | Ki (human H3 receptor [2]) [nM] | Kb (human H3 receptor [1]; pA2, SK-N-MC cells expressing human H3 receptor and CRE-β-galactosidase reporter) [nM]
1 | COc1ccc(C2CN(C)Cc3cc(OC[C@H]4CN(C(C)C)CCO4)ccc32)cc1 (single isomer, unassigned) [Example 256B, 7-(4-Isopropyl-morpholin-2R-ylmethoxy)-4-(4-methoxy-phenyl)-2-methyl-1,2,3,4-tetrahydro-isoquinoline] | 4 | 3.98 | 8 | 7 | 
2 | COc1cccc(C2CN(C)Cc3cc(OCCCN4CCC(F)CC4)ccc32)c1 (single isomer, unassigned) [Example 45B, 7-[3-(4-Fluoro-piperidin-1-yl)-propoxy]-4-(3-methoxyphenyl)-2-methyl-1,2,3,4-tetrahydro-isoquinoline] | 6 | 0.794 | 5 | 3 | 
3 | COc1ccc(C2CN(C)Cc3cc(OCC4CCN(C(C)C)CC4)ccc32)cc1 (stereo not drawn) [Example 83, 7-(1-Isopropyl-piperidin-4-ylmethoxy)-4-(4-methoxy-phenyl)-2-methyl-1,2,3,4-tetrahydro-isoquinoline] | 5 | 1.26 | 6 | 3 | 
4 | COc1ccc(C2CN(C)Cc3cc(C#CCCN4CCCCC4)ccc32)cc1 (stereo not drawn) [Example 275, 4-(4-Methoxy-phenyl)-2-methyl-7-(4-piperidin-1-yl-but-1-ynyl)-1,2,3,4-tetrahydro-isoquinoline] | 4 | 1.26 | 5 | 3 | 
5 | COc1ccc(C2CN(C)Cc3cc(OCCCN4CCC(F)(F)CC4)ccc32)cc1 (stereo not drawn) [Example 8, 7-[3-(4,4-Difluoro-piperidin-1-yl)-propoxy]-4-(4-methoxy-phenyl)-2-methyl-1,2,3,4-tetrahydro-isoquinoline] | 8 | 5.01 | 6 | 4 | 
6 | CSc1ccc(C2CN(C)Cc3cc(OCC4CN(C(C)C)C4)ccc32)cc1 (stereo not drawn) [Example 236, 7-(1-Isopropyl-azetidin-3-ylmethoxy)-2-methyl-4-(4-methylsulfanyl-phenyl)-1,2,3,4-tetrahydro-isoquinoline] | 9 | 7.94 | 6 | 10 | 
7 | CN1Cc2cc(OCCCN3CCCCC3)ccc2C(c2ccsc2)C1 (stereo not drawn) [Example 57, 2-Methyl-7-(3-piperidin-1-yl-propoxy)-4-thiophen-3-yl-1,2,3,4-tetrahydro-isoquinoline] | 53 | 0.1 | 22 | 0.9 | 
8 | CN1Cc2cc(OCCCN3CCOCC3)ccc2C(c2ccc(Cl)c(Cl)c2)C1 (stereo not drawn) [Example 77, 4-(3,4-Dichloro-phenyl)-2-methyl-7-(3-morpholin-4-yl-propoxy)-1,2,3,4-tetrahydro-isoquinoline] | 28 |  | 27 | 3 | 20
9 | CN1Cc2cc(OCCCN3CCCCC3)ccc2C(c2cccnc2)C1 (stereo not drawn) [Example 59, 2-Methyl-7-(3-piperidin-1-yl-propoxy)-4-pyridin-3-yl-1,2,3,4-tetrahydro-isoquinoline] | 160 | 0.126 | 48 | 1 | 
